Test results taken from US7709002B1, “Mutated ras peptides for generation of CD8+Cytotoxic T lymphocytes” (The United States of America as represented by the …, priority 1996, dated 2010).
Where two headings read alike, the source gives them in different places. Where no end group is shown, it is not given here.

How the values were obtained:
human HLA-A2 = molecular target: T1, human HLA-A2 (Homo sapiens, UniProt P04439, D140Y/D185E/D98H/E176V/E277Q/G131W/G231S/I119V/I121R/I166T/I218V/L300P/L318F/N151K/N90K/P208A/P217A/Q86G/Q94H/R138H/R169H/T345S); experiment: HLA-A2 binding bioassay on T2 cells (flow cytometry); conditions: for Immunostaining of T2 cells with Isotype control MAb: no peptide = 84.0
T1 construct: The 174CEM.T2 cell line (“T2”), (transport deletion mutant); endogenous in cells; host or cells: 174CEM.T2 (T2) human cell line

[1] = system: C1R-A2 cell line as target of CD8+ CTL line of RAS patient 32; experiment: 51Cr-release cytotoxicity of CD8+ CTL line of RAS patient 32 against peptide-pulsed C1R-A2 targets; format: cell-based, human; conditions: for % Specific Lysis: E/T 20/1, 6 hr
From the text: (§1) IVS cycles for evaluation of CD8^+ T cell responses from HLA-A2+Patients. Freshly-thawed PBMC (from ras patients 32 and 33), derived pre-vaccination and post-third vaccination, were enriched in T lymphocytes by passage over nylon wool columns (Robbins Scientific, Sunnyvale, Calif.) and then depleted of CD4^+ T cells by negative selection via panning on anti-CD4 MAb-coated T25 flasks (Applied Immune Sciences, Santa Clara, Calif.). For the first IVS cycle, CD8^+ enriched lymphocytes (5×10^5/well) were cultured in 24-well plates with irradiated, autologous PBMC (5×10^6/well) as APC which had been preincubated for 3 hours with the appropriate mutant ras peptide ([…]) plus human β2-microglobulin (10 μg/ml) (Calbiochem, San Diego, Calif.). […] IL-2 (10 U/ml) was added 3 days later. After an additional 7 days, viable cells (2-5×10^5/well) were re-cultured by weekly stimulation with APC pre-pulsed with peptide/β2-microglobulin, and IL-2 added one day later. After the third or fourth IVS cycle, autologous PBMC were replaced with EBV-transformed, autologous BLCL (5×10^5/well) as APC. […] CTL activity was evaluated from cultures 5 to 6 days after Ag restimulation.
(§2) Cytotoxic response. Cytotoxicity was examined by a conventional ^51Cr-release assay, as described (6). Briefly, target cells (i.e. T2, C1R-A2, BLCL, K562) were radiolabeled with 200 μCi of Na2[^51Cr]04 (Amersham) for 60 minutes at 37° C., followed by thorough washing to remove unincorporated isotope. Effectors and targets (1×10^4/well) were incubated in 96-well, U-bottomed plates (Costar) at various effector target (E/T) ratios in the absence and presence of peptide (+/−monoclonal antibody (MAb) directed against CD4, CD8 or HLA-A2 molecules (clone BB7.2 from ATCC)) for up to 6 hours. After incubation, supernatants were collected using a Supernatant Collection System (Skatron, Sterling, Va.) and radioactivity measured in a γ-counter (Packard Instruments, Downers Grove, Ill.). Cytotoxic activity was defined as percent specific release of ^51Cr and determined by the equation: [(experimentalcpm−spontaneouscpm)/maximumcpm−spontaneouscpm)]×100. Results were expressed as the mean±SEM of triplicate cultures. The C1R-A2 line is a BLCL transfected with the HLA-A2 gene (obtained from Dr. P. Creswell, Yale University) (Storkus et al, 1987 J. Immunol. 138:1657-1659), and K562 is an erythroleukemia cell line (ATCC, Rockville, Md.) used to measure NK activity.

[2] = system: T2 cell line as target of CD8+ CTL line of RAS patient 32; experiment: 51Cr-release cytotoxicity of CD8+ CTL line of RAS patient 32 against peptide-pulsed T2 targets; format: cell-based, human; conditions: peptide 10 μg/ml, IVS cycle 7 (FIG. 5)
Experimental: FIG. 5. Cytolytic activity by CD8^+ CTL line of RAS patient 32 is peptide-specific. The CD8^+ CTL line of RAS patient 32 (see FIG. 3) was assayed against the T2 cell line as a target, incubated with and without different ras peptides (10 μg/ml), as shown. In parallel, the extent of NK activity was evaluated against K562 cells. Cytotoxicity was determined by ^51Cr-release, and the results expressed at different E/T ratios following IVS cycle 7. Similar results were observed using the second, independently-derived CD8^+ CTL line as described in Table 6.
as §1
as §2, with “The C1R-A2 line is a BLCL transfected with the HLA-A2 gene (obtained from Dr. P. Creswell, Yale University) (Storkus et al, 1987 J. Immunol. 138:1657-1659), and K562 is an erythroleukemia cell line (ATCC, Rockville, Md.) used to measure NK activity.” left out

[3] = system: peptide-pulsed autologous EBV-B cells; format: cell-based, human
Experimental: as §2

SW480 cells = experiment: Flow cytometric analysis of SW480 cells for HLA-A2 and ICAM-1 after IFN-γ pretreatment; format: cell-based, human
Experimental: (§3) FIGS. 10A and 10B. Anti-ras Val12-specific CTL from patient 29 lyse SW480 tumor targets in the absence of exogenous peptide. FIG. 10A: Anti-ras Val12-specific CD8^+ CTL from patient 29 were assayed against the SW480 colon carcinoma cell line (HLA-A2^+, rasVal12+) in the absence of exogenous peptide, with or without IFN-γ pretreatment (250 U/ml for 24 hr) of the target cells. CD8^+ CTL reactive with the […] peptide were used as an irrelevant effector cell population. Cytotoxicity was determined by ^51Cr-release, and the results expressed at different effector/target ratios. FIG. 10B: In parallel to 10A, anti-ras or anti-MART-1-specific CTL were assayed against SW480 (±IFN-γ pretreatment) at an effector/target ratio of 10/1 in the absence or presence of exogenous peptide (5 μg/ml). […] Flow cytometric analysis of SW480 cells for expression of HLA-A2: untreated=65.4% with MFI of 29.8; IFN-γ-pretreated=99.5% with MFI of 349.6. Flow cytometric analysis of SW480 cells for expression of ICAM-1: untreated=16.0% with MFI of 30.3; IFN-γ-pretreated=98.6% with MFI of 181.9.
Isolation and preparation of peripheral blood mononuclear cells (PBMC). PBMC were isolated from 50 ml of heparinized whole blood by Ficoll-Hypaque density gradient centrifugation (Lymphocyte Separation Medium; Organon-Teknika, Durham, N.C.) prior to the first vaccination and four weeks after each vaccination. After isolation at each interval, PBMC were cryopreserved under liquid nitrogen in a sterile cocktail of 90% heat-inactivated, pooled human AB serum (Valley Biomedical, Winchester, Va.) and 10% dimethyl sulfoxide (DMSO) (Sigma Chemical Co., St. Louis, Mo.). Basic cellular immune responses to mitogens and antigens were first determined using freshly-thawed, unfractionated PBMC, derived pre-vaccination and post-third vaccination. For all functional assays and cell culture preparation, PBMC were suspended in a RPMI-1640 based-medium, supplemented with 15 mM HEPES buffer (pH 7.4), 2 mM L-glutamine, 0.1 mM non-essential amino acids, 1 mM sodium pyruvate, 50 μM β-mercaptoethanol, 50 μg/ml gentamicin (all from GIBCO/BRL, Gaithersburg, Md.) and 10% heat-inactivated human AB serum (Valley Biomedical). Cell surface phenotype of resting and activated lymphocyte cultures was analyzed by direct immunofluorescence. Cells were treated with the appropriate primary monoclonal antibody (MAb) conjugated to fluorescein isothiocyanate (FITC) (from Pharmingen, San Diego, Calif. or Becton Dickinson, Mountain View, Calif.), fixed with 1% paraformaldehyde and evaluated by flow cytometry using a FACScan (Becton Dickinson) for the percentage of positive cells and mean fluorescent intensity (MFI).

[4] = system: SW480 colon carcinoma cell line (HLA-A2+, rasVal12+); experiment: 51Cr-release cytotoxicity of CTL against SW480 colon carcinoma cells; format: cell-based, human; conditions: IFN-γ 250 U/ml for 24 hr; no lysis without pretreatment (FIG. 10A)
Experimental: as §3
(§4) Cytotoxic response. Cytotoxicity was examined by a conventional ^51Cr-release assay, as described (6). […] After incubation, supernatants were collected using a Supernatant Collection System (Skatron, Sterling, Va.) and radioactivity measured in a γ-counter (Packard Instruments, Downers Grove, Ill.). Cytotoxic activity was defined as percent specific release of ^51Cr and determined by the equation: [(experimentalcpm−spontaneouscpm)/maximumcpm−spontaneouscpm)]×100. Results were expressed as the mean±SEM of triplicate cultures. […]
Studies were also carried out to determine whether such peptide-induced CD8^+ CTL could recognize a processed form of the corresponding mutant ras protein. […] In contrast to the CD4^+ analysis, which measured lymphoproliferation to soluble protein, the CD8^+ CTL analysis reflected lytic ability against SW480 cells harboring the naturally-occurring mutation in the absence of exogenously added peptide. […]

[5] = system: C1R-A2 targets / autologous EBV-B cells as targets of CD8+ CTL line of patient 29; experiment: 51Cr-release cytotoxicity of CD8+ CTL line of patient 29 against C1R-A2 or autologous EBV-B targets; format: cell-based, human; conditions: autologous EBV-B targets, IVS cycle 11, effector/target ratio 10/1 (FIG. 9B)
Experimental: FIGS. 9A and 9B. Production of a peptide-specific CD8^+ T cell line from post-vaccinated lymphocytes of patient 29. FIG. 9A: A CD8^+ CTL line was established from post-vaccinated PBMC of patient 29 and assayed for peptide specificity against C1R-A2 targets. Cytotoxicity was determined by ^51Cr-release, and the results expressed at different effector/target ratios following IVS cycle 7. FIG. 9B: Using this CD8^+ CTL line, the requirement for HLA-A2 in peptide presentation (by autologous EBV-B cells as targets) was determined in blocking experiments using MAb (clone BB7.2; ascites=1:30 dilution) directed against that molecule (or using an isotype-matched MAb). […] CD4 and CD8 MAbs were as described for FIGS. 8A and 8b. Control lysis in the absence of peptide or in the presence of ras5-14(Gly12) was <3%.
as §4

[6] = Post-Immune CD8+ culture, IVS cycle 6, 10-mer peptide 10 μg/ml
[7] = Post-Immune CD8+ culture, IVS cycle 7, 10-mer peptide 10 μg/ml
[8] = Post-Immune CD8+ culture, IVS cycle 8, 10-mer peptide 10 μg/ml
[9] = Post-Immune CD8+ culture, IVS cycle 9, 10-mer peptide 10 μg/ml
[10] = Pre-Immune CD8+ culture, IVS cycle 6, 10-mer peptide 10 μg/ml
[11] = Pre-Immune CD8+ culture, IVS cycle 7, 10-mer peptide 10 μg/ml
[12] = peptide 50 μg/ml + β2-microglobulin 3 μg/ml, overnight 37° C., serum-free

With YLVVVGADGV [Tyr variant] the “Binding activity to HLA-A2 on T2 cells relative to native ras5-14(Asp12) sequence” value (human HLA-A2; less dependency for exogenous β2-macroglobulin) was “higher binding activity than did the native peptide sequence” and the “Shift in dose-response of target sensitization for lysis vs native peptide, based on half-maximal activity” value ([1]; anti-ras5-14(Asp12) CTL line, E/T 10/1 (FIG. 11)) was “three-fold”.
For “Lys-Leu-Val-Val-Val-Gly-Ala-Asp-Gly-Val [ras5-14(Asp12)]”, the “Sensitization of T2 targets for lysis (in words)” value [2] was “sensitized the T2 cell line for lysis”, the “% Specific Lysis” value [1, 6] was 24 ± 2% and the “% Specific Lysis” value [1, 7] was 26 ± 2%. The “% Specific Lysis” value [1, 8] was 67 ± 2%, the “% Specific Lysis” value [1, 9] was 68 ± 4% and the “% Specific Lysis” value [1, 10] was 14 ± 0%. For the same compound, the “% Specific Lysis” value [1, 11] was 0%.
In the case of `CC(C)C[C@H](NC(=O)[C@@H](N)CCCCN)C(=O)N[C@H](C(=O)N[C@H](C(=O)N[C@H](C(=O)NCC(=O)N[C@@H](C)C(=O)N[C@@H](CS)C(=O)NCC(=O)N[C@H](C(=O)NCC(=O)N[C@@H](CCCCN)C(=O)N[C@@H](CO)C(=O)O)C(C)C)C(C)C)C(C)C)C(C)C` [ras5-17(Cys12)], the “Specific cytotoxic response of CD4+ T cell line” value ([3]; CD4+ T cell line of patient 43) is reported as “no specific cytotoxic response was detected”.
“CEA571-579: 9 amino acid peptide, HLA-A2-restricted CEA-specific CD8+ CTL epitope, positive control for HLA-A2 binding (CGIQNSVSA; UniProt P06731 571-579, looked up, fragment)” was tested, and the “Immunostaining of T2 cells with Isotype control MAb” value (human HLA-A2; [12]) was 48.4 MFI, the “Immunostaining of T2 cells with MAb against HLA-A2” value (human HLA-A2; peptide 50 μg/ml + β2-microglobulin 3 μg/ml, overnight 37° C., serum-free, no peptide = 137.9) was 679.5 MFI and the “Immunostaining of T2 cells with Pan Class I MAb (W6/32)” value (human HLA-A2; peptide 50 μg/ml + β2-microglobulin 3 μg/ml, overnight 37° C., serum-free, no peptide = 230.4) was 991.2 MFI.
For “IFN-γ: interferon gamma used to pretreat SW480 target cells”, the “SW480 cells positive for HLA-A2” value (SW480 cells; IFN-γ-pretreated (250 U/ml, 24 hr), untreated 65.4%) was 99.5%, the “SW480 cells positive for ICAM-1” value (SW480 cells; IFN-γ-pretreated, untreated 16.0%) was 98.6% and the “HLA-A2 expression on SW480” value (SW480 cells; IFN-γ-pretreated, untreated 29.8) was 349.6 MFI. For the same compound, the “ICAM-1 expression on SW480” value (SW480 cells; IFN-γ-pretreated, untreated 30.3) was 181.9 MFI and the “Lysis of SW480 by anti-rasVal12 CTL after pretreatment of targets, no exogenous peptide” value [4] was “demonstrable cytotoxicity was observed at multiple effector/target ratios”.
For `CC(C)C[C@H](NC(=O)[C@@H](N)CCCCN)C(=O)N[C@H](C(=O)N[C@H](C(=O)N[C@H](C(=O)NCC(=O)N[C@@H](C)C(=O)N[C@H](C(=O)NCC(=O)N[C@H](C(=O)NCC(=O)N[C@@H](CCCCN)C(=O)N[C@@H](CO)C(=O)O)C(C)C)C(C)C)C(C)C)C(C)C)C(C)C` [ras5-17(Val12)], the “Specific cytotoxic response of CD4+ T cell line” value ([3]; CD4+ T cell line of patient 29) was “did not display specific cytotoxicity”.
“ras5-14(Gly12): wild-type ras 10-mer peptide positions 5-14 with Gly at position 12 (KLVVVGAGGV)” was tested, and the Control lysis [5] was < 3%, the “Sensitization of T2 targets for lysis (in words)” value [2] was “failed to stimulate lysis” and the “Immunostaining of T2 cells with Isotype control MAb” value (human HLA-A2; [12]) was 41.3 MFI. The Control lysis ([1]; IVS cycle 16, effector/target ratio 10/1 (FIG. 7)) was < 3%, the “% Specific Lysis” value [1, 6] was 8 ± 0% and the “% Specific Lysis” value [1, 7] was 8 ± 1%. For the same compound, the “% Specific Lysis” value [1, 8] was 10 ± 1%, the “% Specific Lysis” value [1, 9] was 21 ± 2% and the “% Specific Lysis” value [1, 10] was 10 ± 1%. For the same compound, the “% Specific Lysis” value [1, 11] was 0%.
